US20190365675A1, “COMPOSITIONS FOR THE PREVENTION AND/OR TREATMENT OF ALCOHOL USE DISORDERS” (SERVICIO ANDALUZ DE SALUD, priority 2016, published 2019)

What was measured:
caspase-3 = assay: Caspase-3 mRNA, protein and activity (fluorometric assay) in frontal cortex after ethanol intoxication; format: in vivo, Wistar rats; settings: OEA pre-treatment
Description: The animals were treated with intragastric (i.g.) ethanol 3 times a day using an i.g. cannula (16G needle, Fisher Scientific, Waltham, Mass., USA), following a protocol based on a slightly modified standard 4-day alcohol intoxication pattern (Bernier et al., 2002a, b) (FIG. 1A). The ethanol doses were administered every 8 h for a total time of 4 days. The rats treated with ethanol received an initial loading dose of 5 g/kg of ethanol in a 30% solution (w/v) and then a maximum maintenance dose of 3 g/kg, which were determined based on blood ethanol levels (BEL). This repeated standard alcohol intoxication paradigm kept BEL intoxication relatively constant in a range of sedation/ataxia (190 to 430 mg/dl, Table 3), according to the 6-point alcohol intoxication behavior scale (Majchrowicz, 1975). The mean dose of ethanol/rat/day (days 1-4) was 7.06 g/kg, similar to other studies (Obernier et al., 2002a, b). OEA (5 mg/kg, i.p., except initial dose of 10 mg/kg i.p.; synthesized as described in Giuffrida et al., 2000) was dissolved in the vehicle (5% Tween-80 in saline solution) and injected 10 minutes before each of the administrations of ethanol by an intragastric gavage. The anti-inflammatory activity of OEA at 10 mg/kg per intraperitoneal route in the frontal cortex before the injection of LPS (Sayd et al., 2014) was previously referred to. In this study, OEA is repeatedly injected as a pre-treatment before each administration of ethanol. The doses of OEA chosen in this study are in the range of doses tested as being pharmacologically active (5-20 mg/kg, i.p.) (Bilbao et al., 2015). […] The autoradiograph was quantified by densitometry (NIH ImageJ® software, National Biosciences, Lincoln, Nebr. USA) and expressed as optical density (OD). […] The quantitative changes in mRNA levels were estimated by means of RT-PCR, carried out in the presence of the SYBR green primer using a 20-L reaction in a Rotor-Gene (Corbett Research®, Mortlake, NSW, Australia). […] Caspase-3 activity was determined using a fluorometric assay kit (Abnova®, Taiwan) according to the manufacturer's protocol. […]

LPS = assay: Plasma LPS levels (intestinal permeability to endotoxins); format: in vivo, Wistar rats; settings: animals pretreated with OEA and receiving ethanol; ethanol alone about 80%; does not differ from control or ethanol group
Description: The animals were treated with intragastric (i.g.) ethanol 3 times a day using an i.g. cannula (16G needle, Fisher Scientific, Waltham, Mass., USA), following a protocol based on a slightly modified standard 4-day alcohol intoxication pattern (Bernier et al., 2002a, b) (FIG. 1A). The ethanol doses were administered every 8 h for a total time of 4 days. The rats treated with ethanol received an initial loading dose of 5 g/kg of ethanol in a 30% solution (w/v) and then a maximum maintenance dose of 3 g/kg, which were determined based on blood ethanol levels (BEL). This repeated standard alcohol intoxication paradigm kept BEL intoxication relatively constant in a range of sedation/ataxia (190 to 430 mg/dl, Table 3), according to the 6-point alcohol intoxication behavior scale (Majchrowicz, 1975). The mean dose of ethanol/rat/day (days 1-4) was 7.06 g/kg, similar to other studies (Obernier et al., 2002a, b). […]
Corticosterone and LPS were measured in plasma by means of the use of radioimmunoassay (R.I.A.) kits available on the market (Coat-A-Count®, Siemens, La., USA) or colorimetric enzymatic reaction (HyCult Biotech, Uden, Netherlands), respectively.

CCCCCCCC/C=C\CCCCCCCC(=O)NCCO [OEA, oleoylethanolamide]
Alcohol-induced overexpression of caspase-3 mRNA (caspase-3): unable to prevent | Ethanol-induced overexpression of caspase-3 protein (caspase-3): prevented | Ethanol-induced increase in activity of caspase-3 (caspase-3; fluorometric assay): reverted | Plasma LPS levels, increase with respect to the control (LPS): 44%
